US20060183670A1, “Autoantigen composition” (priority 2001, published 2006)

Assays:
NOD mice [1] = assay: Histological insulitis grading of pancreases of vaccinated NOD mice; type: in vivo; details: antigen in IFA; for mean insulitis score: 0-4 scale, pancreases at the time of adoptive transfer (9 weeks of age)
Procedure: Histological studies were performed on the pancreases of the vaccinated mice at the time of adoptive transfer.

NOD scid/scid mice = assay: Adoptive transfer of splenocytes from vaccinated NOD mice into NOD scid/scid mice; type: in vivo; details: for effect on incidence of diabetes in NOD scid/scid adoptive transfer model (in words): antigen in IFA; for scid/scid recipient mice that became diabetic: antigen in IFA sc. to NOD donors at 3, 5 and 7 weeks, splenocytes cotransferred with untreated NOD splenocytes, by the 75th day after adoptive transfer, 16 mice/group
Procedure: To test the efficacy of autoantigens in IFA, NOD mice were vaccinated with human recombinant GAD65 (300 μg/mice) in IFA (total volume 0.1 ml), human insulin B-chain (20.1 μg/mice) in IFA (total volume 0.1 ml) and sham protein (Lysozyme, 200 μg/mice) in IFA (total volume 0.1 ml) sc. in the inguinal areas at 3, 5 and 7 weeks of age. At 9 weeks of age the treated mice were sacrificed and their splenocytes (1.0×10^7 cells) were cotransfered with splenocytes from 9 weeks old untreated NOD mice (1.0×10^7 cells) into 9-11 weeks old NOD scid/scid mice (16 mice/group; total 2.0×10^7 cells/mice). Control group received splenocytes (2.0×10^7 cells/mice) from untreated NOD mice.

mice = details: mouse, in vivo
Source text: In our animal study where we used IFA with human insulin B-chain or with human GAD65 protein, the mice were carefully observed for any adverse effect.

NOD mice [2] = details: cited from earlier work
human = details: pilot human trial; Keller et al. 1993; cited from earlier work

GAD65: Human recombinant GAD65, 585 amino acid β-cell autoantigen (SEQ ID NO:2), given in IFA
mean insulitis score (NOD mice [1]): 1.31
effect on insulitis in NOD mice (in words) (NOD mice [1]): reduced insulitis
effect on incidence of diabetes in NOD scid/scid adoptive transfer model (in words) (NOD scid/scid mice): significantly reduces the incidence of diabetes
scid/scid recipient mice that became diabetic (NOD scid/scid mice): 4/16
adverse effects, general and local (mice): well tolerated without any detectable side effects
Th1/Th2 balance (NOD mice [2]; nasal administration, Tian et al. 1996): change in Th1/Th2 balance in favor of Th2 ‘protective’ cells response

Insulin: β-cell specific major protein, moderately immunogenic when used alone
development of diabetes mellitus (human): delaying the development of diabetes mellitus

Lysozyme [reference compound]
mean insulitis score (NOD mice [1]): 2.64
effect on incidence of diabetes in NOD scid/scid adoptive transfer model (in words) (NOD scid/scid mice): not effective
scid/scid recipient mice that became diabetic (NOD scid/scid mice): all

human recombinant insulin B-chain: Literature recombinant human insulin B-chain given in IFA (Ramiya et al.) [reference compound]
cytokine pattern in NOD mice islets (NOD mice [2]; in IFA, Ramiya et al. 1996): Th2 cytokine pattern
